This note sets out measurements from patent US9910031B2, “Compositions and methods for modulating c-Rel-dependent cytokine production” (Synta Pharmaceuticals Corporation, priority 2003, dated 2018).

The structures appear in SMILES notation.

Assay [1] deals with IL-12 p70. Put plainly: Inhibition of production of IL-12 p70 protein. Type of assay: cell-based, human. As to conditions: Homo sapiens; 1 μM Compound 1; 10 mM ASA; read-out: percent inhibition of production of IL-12 p70 protein. How it is done:
Cells were co-transfected with the vector pCMV (BD Biosciences Clontech) in which the constitutively active CMV promoter directs β-galactosidase expression for the monitoring of transfection efficiency. Luciferase and β-galactosidase activity were determined in cell extracts prepared according to the Luciferase assay system (Promega) and Luminescent n-gal Detection system (BD Biosciences Clontech). Luciferase activity was then normalized using the β-galactosidase value. […] ELISA was performed by the following method. Human IL-12 p70 (heterodimer) was assayed using ELI-PAIR kit from Cell Sciences (Norwood, Mass.), according to the manufacturer's instructions. Human IL-12 p40 was assayed using ELISA kit from Cell Sciences (Norwood, Mass.) according to the manufacturer's instructions.
The extracts obtained from this process were used in gel-shift assays using oligonucleotides containing the NFκB target sequence corresponding to the region −121 to −102 from the transcription initiation site of IL-12 p40 or a mutated NFκB binding site. […] This interaction was specific as it was competed away by an excess of unlabeled probe, but not by a mutated oligonucleotide in which two base-pairs were substituted. […] This is expected since a compound that potently blocks NFkB have a far broader cytokine inhibitory profile than Compound 1/Compound 2.

The test system of a further assay is NFκB. Briefly: Gel-shift assay of NFκB binding to the IL-12 p40 promoter site, THP-1 nuclear extracts. Type of assay: cell-based, human. As to conditions: IFN-γ-primed, SAC-stimulated THP-1; 1 μM Compound 1 or 10 mM ASA. How it is done:
Nuclear extracts were prepared from IFN-γ-primed THP-1 cells that had been treated with or without SAC and incubated in the presence or absence of 1 μM Compound 1 or 10 mM ASA. Isolation of nuclear extracts was accomplished by first suspending THP-1 cells in 20 volumes of buffer A containing 10 mM KCl, 10 mM HEPES (pH 7.9), 1 mM MgCl2, 1 mM dithiothreitol (DTT), 0.1% Nonidet p40 (NP-40), and 0.5 mM phenylmethylsulfonyl fluoride (PMSF) and then homogenizing and centrifuging at 10,000 rpm at 4° C. for 5 min. Nuclear pellets were then suspended in buffer C containing 400 mM NaCl, 20 mM HEPES pH 7.9), 15 mM MgCl2, 0.2 mM EDTA, 1 mM DTT, 25% glycerol, 1 mM PMSF, and 10 μg of leupeptin, 20 μg of pepstatin, and 10 μg of antipain per ml, incubated for 30 min at 4° C., and centrifuge at 14,000 rpm for […]. The supernatants were dialyzed against buffer D containing 100 mM NaCl, 20 mM HEPES (pH 7.9), 20% glycerol, 1 mM PMSF, and 1 mM DTT.
The extracts obtained from this process were used in gel-shift assays using oligonucleotides containing the NFκB target sequence corresponding to the region −121 to −102 from the transcription initiation site of IL-12 p40 or a mutated NFκB binding site. […] This interaction was specific as it was competed away by an excess of unlabeled probe, but not by a mutated oligonucleotide in which two base-pairs were substituted. […]

For another assay, the system named is IκBβ. Put plainly: Inducible degradation of IκBβ, Western blot and FACS analysis. The note with it: THP-1 and RAW267.4 cells, IFN-γ/LPS or IFN-γ/SAC, 500 nM, 30 min and 2 hrs. Type of assay: cell-based, human. Here is the method: IκB degradation is one of the steps in the signaling pathway of NFκB dependent genes. The activity of Compound 2 in inducible degradation of IκBα □ and IκBβ was investigated in THP-1 cells using Western blot and FACS analysis. […] Similar results were observed from the Compound 2 pre-treatment samples in which Compound 2 was added […] before stimulation.
For orientation: Immunoblotting shows a protein as a band on a membrane.

In the next assay the test system is Rel-B. Briefly: Immunoblot of nuclear Rel-B in THP1 cells. It is filed as cell-based, human. As to conditions: THP1, IFNg+LPS, 100 nM, 6 h. Here is the method:
(§1) Rel B and p52 are two members of Rel family, which are preferentially complexed with each other. Like p50 and p65, p52 is found in virtually all cell types, whereas c-Rel and Rel B have only been detected in lymphoid tissues. To determine the effect of Compound 2 on p52 and Rel-B nuclear translocation, THP1 cells were stimulated with IFNg+LPS in either the presence or absence of 100 nM Compound 2, and the distribution of p52 and Rel-B was determined by immunoblotting of nuclear at 6 h post-treatment.
(§2) THP-1 cells were suspended in 20 volumes of buffer A containing 10 mM KCl, 10 mM HEPES (pH 7.9), 1 mM MgCl2, 1 mM dithiothreitol (DTT), 0.1% Nonidet p40 (NP-40), and 0.5 mM phenylmethylsulfonyl fluoride (PMSF) and homogenized and centrifuged at 10,000 rpm at 4 C for 5 min. Nuclear pellets were then suspended in buffer C containing 400 mM NaCl, 20 mM HEPES 9 pH 7.9), 15 mM MgCl2, 0.2 mM EDTA, 1 mM DTT, 25% glycerol, 1 mM PMSF, and 10 ug of leupeptin, 20 ug of pepstatin, and 10 ug/ml antipain, incubated for 30 min at 4 C, and centrifuged at 14,000 rpm for 20 min. The supernatants were dialyzed against buffer D containing 100 mM NaCl, 20 mM HEPES (pH 7.9), 20% glycerol, 1 mM PMSF, and 1 mM DTT.
(§3) The 10% SDS Polyacrylamide gels (Invitrogen) were transferred to Pure Nitrocellulose membrane (BioRed, Hercules, Calif.). […]

In assay [2] the test system is IL-12 p70. Briefly: IL-12 p70 production in human monocyte-derived dendritic cells. Type of assay: cell-based. The note with it: IFN-γ primed then SAC or LPS. Here is the method: Although c-Rel has a role in the expression of both p35 and p40 in monocytes and macrophages as well as p35 in dendritic cells (DCs), p40 expression in dendritic cells is c-Rel-independent (Grumont et al. J. Exp. Med. 2001; 194:1021-1031). If Compound 2 is acting through c-Rel, this drug should inhibit both p40 and p70 production by PBMCs. However, Compound 2 should inhibit the production of p70 (through inhibition of p35) in DCs, but should not inhibit p40 in DCs. This was tested by generating monocyte-derived dendritic cells according to the following method. Human PBMC at 1×10^7 cells/ml were suspended in serum-free DMEM and incubated for 2 hrs at 37° C. under 5% CO2. The non-adherent cells then were removed by washing with PBS. The adherent cells were cultured in RPMI-1640 medium containing rhIL-4 (100 U/ml) and rhGM-CSF (1000 U/ml) for 6-7 days. The half volume fresh media and full-volume fresh cytokines were added every other day. The cells were then primed with IFN-γ (100 U/ml) and followed by 0.01% SAC or 1 μg/ml LPS, in the presence of different concentrations of Compound 2 or other compounds. The test compounds were prepared in DMSO and the final DMSO concentration was adjusted to 0.25% in all cultures, including the compound-free control. Cell-free supernatants were taken 18 h later for the measurement of cytokines.

A further assay deals with p52. Briefly: Immunoblot of nuclear p52 in THP1 cells. Type of assay: cell-based, human. As to conditions: THP1, IFNg+LPS, 100 nM, 6 h. Here is the method:
as §1, §2, §3

Usually inhibition stands for the drop in the measured response relative to a control, in per cent. Consider `C(=NNc1nc(OCCc2ccccn2)nc(N2CCOCC2)n1)c1c[nH]c2ccccc12` [Compound 1, N-(1H-indol-3-ylmethylene)-N′-[4-morpholin-4-yl-6-(2-pyridin-2-yl-ethoxy)-[1,3,5]triazin-2-yl]-hydrazine], for which the inhibition at 1 µM in the assay on IL-12 p70 [1] was determined as 97%. The “NFκB binding to p40 promoter probe (gel shift)” value in the assay with NFκB was “did not show any influence”.

`Cc1cccc(C=NNc2cc(N3CCOCC3)nc(OCCc3ccccn3)n2)c1` [Compound 2, N-(3-methyl-benzylidene)-N′-[6-morpholin-4-yl-2-(2-pyridin-2-yl-ethoxy)-pyrimidin-4-yl]-hydrazine]: the “amount of IκBβ in the cytoplasm, treated vs untreated” value in the assay with IκBβ is recorded as “no significant difference”. Besides, the “nuclear Rel-B (FIG. 11)” value with Rel-B is “slightly increased”. In the assay on IL-12 p70 [2], the “p70 production in human DCs” value is reported as “inhibit”. For the same molecule, the “nuclear p52 (FIG. 11)” value in the assay on p52 was “No significant difference”.
